Source: ChEMBL document CHEMBL3217451, “Structure-based optimization of the piperazino-containing 1,3-disubstituted ureas affording sub-nanomolar inhibitors of soluble epoxide hydrolase” (Medchemcomm, 2012)
pIC50: −log10 of the molar value. ≈ marks a conversion by molar mass, not a printed value.

What was measured:
[1] = Solubility of the compound in sodium phosphate buffer at pH 7.4 at 25 +/- 1 degC; type: physicochemical
[2] = molecular target: T1, Bifunctional epoxide hydrolase 2 (Homo sapiens, UniProt P34913); assay: Inhibition of human recombinant soluble epoxide hydrolase using cyano(6-methoxy-naphthalen-2-yl)methyl-trans-[(3-phenyloxiran-2-yl)methyl]carbonate as substrate after 5 mins by fluorescence assay
T1 sequence (P34913 whole entry): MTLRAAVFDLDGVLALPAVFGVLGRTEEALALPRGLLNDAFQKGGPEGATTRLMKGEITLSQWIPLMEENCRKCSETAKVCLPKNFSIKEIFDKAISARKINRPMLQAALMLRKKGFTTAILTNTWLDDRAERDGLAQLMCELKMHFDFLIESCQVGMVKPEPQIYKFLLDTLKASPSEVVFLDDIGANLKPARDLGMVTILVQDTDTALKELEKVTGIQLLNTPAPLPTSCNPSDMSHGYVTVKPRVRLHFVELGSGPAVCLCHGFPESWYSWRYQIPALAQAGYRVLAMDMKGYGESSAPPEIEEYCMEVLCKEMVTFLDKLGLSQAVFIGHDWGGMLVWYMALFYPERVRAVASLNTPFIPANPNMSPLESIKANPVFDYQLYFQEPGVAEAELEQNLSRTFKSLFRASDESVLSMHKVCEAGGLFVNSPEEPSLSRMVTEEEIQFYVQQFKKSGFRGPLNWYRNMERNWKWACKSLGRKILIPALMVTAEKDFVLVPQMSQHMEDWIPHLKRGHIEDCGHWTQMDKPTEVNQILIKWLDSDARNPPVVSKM

[3] = molecular target: T1, Bifunctional epoxide hydrolase 2; assay: Inhibition of soluble epoxide hydrolase (unknown origin)

`CC(C)(C)OC(=O)N1CCN(CCCOc2ccc(NC(=O)NC34CC5CC(CC(C5)C3)C4)c3cccnc23)CC1` showed a solubility [1] of 150 µg/mL (≈ 266 µM) and a pIC50 [2] of 8.17.

`CS(=O)(=O)N1CCN(CCCCOc2cccc(NC(=O)CC34CC5CC(CC(C5)C3)C4)c2)CC1` showed a solubility [1] of 170 µg/mL (≈ 337 µM) and a pIC50 [2] of 9.30.

Work on `CN1CCN(C(=O)NC23CC4CC(CC(C4)C2)C3)CC1` yielded a pIC50 [2] of 7.20.

`CC(C)(C)OC(=O)N1CCN(C(=O)CCC(=O)N2CCC(NC(=O)NC34CC5CC(CC(C5)C3)C4)CC2)CC1` gave a solubility [1] of 470 µg/mL (≈ 861 µM) and a pIC50 [2] of 7.73.

Molecule `O=C(Nc1ccc(C(=O)N2CCNCC2)cc1)NC12CC3CC(CC(C3)C1)C2` has a solubility [1] of 1960 µg/mL (≈ 5120 µM) and a pIC50 [2] of 7.17.

`CS(=O)(=O)N1CCN(C(=O)c2ccc(NC(=O)NC34CC5CC(CC(C5)C3)C4)cc2)CC1` gave a solubility [1] of 860 µg/mL (≈ 1870 µM) and a pIC50 [2] of 9.00.

With `O=C(NC12CC3CC(CC(C3)C1)C2)N1CCNCC1` the pIC50 [2] was 4.00.

`CC(=O)N1CCN(C(=O)c2cccc(NC(=O)NC34CC5CC(CC(C5)C3)C4)c2)CC1` gave a solubility [1] of 890 µg/mL (≈ 2100 µM) and a pIC50 [2] of 7.33.

In the case of `CC(=O)N1CCN(C(=O)c2ccc(NC(=O)NC34CC5CC(CC(C5)C3)C4)cc2)CC1`, the solubility [1] was 530 µg/mL (≈ 1250 µM) and the pIC50 [2] was 8.05.

`O=C(NC1CCN(C(=O)CCC(=O)N2CCNCC2)CC1)NC12CC3CC(CC(C3)C1)C2` gave a solubility [1] of 8000 µg/mL (≈ 18000 µM) and a pIC50 [2] of 7.11.

In the case of `CC(=O)N1CCN(CCCCOc2cccc(NC(=O)CC34CC5CC(CC(C5)C3)C4)c2)CC1`, the solubility [1] was 160 µg/mL (≈ 342 µM) and the pIC50 [2] was 9.22.

For `CS(=O)(=O)N1CCN(C(=O)c2cccc(NC(=O)NC34CC5CC(CC(C5)C3)C4)c2)CC1`, the solubility [1] was 130 µg/mL (≈ 282 µM) and the pIC50 [2] was 7.38.

`CC(C)(C)OC(=O)N1CCN(C(=O)c2cccc(NC(=O)NC34CC5CC(CC(C5)C3)C4)c2)CC1` gave a solubility [1] of 210 µg/mL (≈ 435 µM) and a pIC50 [2] of 8.14.

`CC(=O)N1CCN(C(=O)CCC(=O)N2CCC(NC(=O)NC34CC5CC(CC(C5)C3)C4)CC2)CC1` gave a pIC50 [2] of 7.35.

Molecule `O=C(NCC[C@H]1CN[C@@H](Cc2ccccc2)CN1)NC12CC3CC(CC(C3)C1)C2` has a pIC50 [3] of 5.86.

With `CC(=O)N1CCN(CCCOc2ccc(NC(=O)NC34CC5CC(CC(C5)C3)C4)c3cccnc23)CC1` the solubility [1] was 130 µg/mL (≈ 257 µM) and the pIC50 [2] was 6.85.

Molecule `CC(=O)N1CCN(C(=O)NC23CC4CC(CC(C4)C2)C3)CC1` has a pIC50 [2] of 6.49.

Work on `CC(C)(C)OC(=O)N1CCN(C(=O)c2ccc(NC(=O)NC34CC5CC(CC(C5)C3)C4)cc2)CC1` yielded a solubility [1] of 500 µg/mL (≈ 1040 µM) and a pIC50 [2] of 9.30.

For `CC(C)(C)OC(=O)N1CCN(C(=O)NC23CC4CC(CC(C4)C2)C3)CC1`, the pIC50 [2] was 6.31.

Molecule `CC(C)(C)OC(=O)N1CCN(CCCCOc2cccc(NC(=O)CC34CC5CC(CC(C5)C3)C4)c2)CC1` has a solubility [1] of 180 µg/mL (≈ 342 µM) and a pIC50 [2] of 9.40.

`O=C(Nc1cccc(C(=O)N2CCNCC2)c1)NC12CC3CC(CC(C3)C1)C2` showed a solubility [1] of 1150 µg/mL (≈ 3010 µM) and a pIC50 [2] of 6.87.
